In US12162889B2, “Luminogens for biological applications” (THE HONG KONG UNIVERSITY OF SCIENCE AND TECHNOLOGY, priority 2016, dated 2024):
Values belong to the molecule of their own block, whether it stands above or below them.

Legend:
HeLa cells = test: Cell imaging of living HeLa cells with AIE dots; assay type: cell-based; settings: dye as AIE dots, 12 h, 37° C.
Procedure: Generally, 1 mg of the AIEgen and 5 mg of DSPE-PEG-Biotin were dissolved in 1 mL of chloroform. Subsequently, 9 mL of Milli-Q water was added into the chloroform solution under sonication for 10 minutes at room temperature using a microtip probe sonicator with an 18 W output (XL2000, Misonix Incorp., USA). The mixture was stirred in the nitrogen flow overnight until the chloroform was completely evaporated. A clear solution was obtained, and the solution was filtered through a 0.45 μm microfilter to result in the formation of AIE dots.
Cell Culture: HeLa cells were cultured in MEM containing 10% FBS and antibiotics (100 units/mL penicillin and 100 µg/mL streptomycin) in a 5% CO2 humidity incubator at 37° C. All culture media were supplemented with 10% heat-inactivated FBS, 100 units/mL penicillin, and 100 μg/mL streptomycin. Before the experiment, the cells were precultured until confluence was reached.
Cell Imaging: HeLa cells were grown overnight on a 35 mm petri dish with a cover slip at 37° C. After removal of the medium, the adherent cells were washed twice with 1× phosphate buffered saline (PBS) buffer. The AIE dots were then added to the chamber. After incubation for 12 hours, the cells were washed three times with 1×PBS buffer. The cells were imaged on a Zeiss laser scanning confocal microscope and analyzed using ZEN 2009 software.

Two-photon absorption = assay type: physicochemical
Description: The TPA spectrum of AIE dots in water with the wavelength range from 800-1000 nm at 20 nm intervals was investigated. […] Moreover, a 900 nm fs laser expects to have deeper penetration and better focusing capability than the commonly used 770-860 nm Ti:Sapphire fs laser. Therefore, the TTS dots are a promising candidate for two-photon deep-tissue in vivo bioimaging.

[1] = Absorption spectra in solvents / aqueous media; assay type: physicochemical
Description: With introduction of extra arylamine units to the TTB molecule, the absorption peak of TTS is slightly red-shifted due to longer electronic conjugation.
(§1) Due to the higher ΦF and much better processability of TTS, it was chosen for further biological applications. For easy dispersion of the highly hydrophobic TTS molecules in an aqueous environment, the TTS dots were formulated through a simple procedure by a nanoprecipitation method with amphiphilic and biocompatible 1,2-distearoyl-sn-glycero-3-phosphoethanolamine-N [methoxy(polyethyleneglycol)-2000] (DSPE-PEG 2000) as the encapsulation matrix (FIG. 70). […] TTS dots have an absorption maxima at 497 nm in aqueous media, which fits well with the commercial laser excitation at 488 nm. The strong emission of TTS dots (FIG. 71B) peaks at the red region (630 nm) and tails to the near-infrared region (820 nm). It is noteworthy that the Stokes shift of the TTS dots is big enough (>130 nm) to solve the serious problem of the self-quenching effect common in conventional organic dye molecules.

[2] = Photoluminescence (emission) spectra in solvents, THF/water aggregates, powder and dots; assay type: physicochemical
Description: The photoluminescence (PL) spectrum of TTS (FIG. 66) is basically a flat line parallel to the abscissa in pure THF. The spectral pattern remains unchanged at water content up to 40%. Afterwards, the PL intensity increases dramatically. The higher the water fraction, the stronger the emission intensity. The emission peak reaches to ˜636 nm. The emission intensity reaches its maximum value at 90% water content, which is 170-fold higher than that in pure THF
When the solvent polarity was increased from Tol to NMP, the emission of TTB, TTA, and TTS are red-shifted with an emission quenching effect. […] However, compared with TTB molecule, TTA and TTS molecules are more sensitive to solvent polarity. TTA and TTS are emissive in Tol, weak emissive in DO and nonemissive in THF with medium polarity. In contrast, TTB is highly emissive in Tol, DO, and THF, and even in the high polarity solvent NMP, TTB is still emissive observed by the naked eye. […] It is probable that even in THF with medium polarity, the conformation of the TTA or TTS becomes twisted and the charge becomes separated.
In pure THF solution, it is non-emissive. The PL intensity remains unchanged at water fraction fw<50%. Afterwards, the PL intensity reaches its maximum value at 90% water content with emission peak at ˜635 nm. Thus, both TTS and TTA are AIE-active.
as §1

[3] = Fluorescence quantum yield and lifetime; assay type: physicochemical
[4] = Energy band gap and HOMO/LUMO from absorption onset and onset oxidation potential; assay type: physicochemical
[5] = in methanol; cited from earlier work
[6] = aggregate, excitation 900 nm laser

Structure (SMILES): COc1ccc(C(=C(c2ccccc2)c2ccc(-c3sc(-c4ccc(C(=C(c5ccc(OC)cc5)c5ccc(OC)cc5)c5ccccc5)cc4)c4nc(-c5ccccc5)c(-c5ccccc5)nc34)cc2)c2ccc(OC)cc2)cc1 [MTPE-TP, 5,7-bis(4-(2,2-bis(4-methoxyphenyl)-1-phenylvinyl)phenyl)-2,3-diphenylthieno[3,4-b′]pyrazine]
- fluorescence in cells (HeLa cells): intense red fluorescence was observed in the cellular cytoplasms

Structure (SMILES): c1ccc(-c2nc3c(-c4ccc(N(c5ccccc5)c5cccc6ccccc56)cc4)c4nsnc4c(-c4ccc(N(c5ccccc5)c5cccc6ccccc56)cc4)c3nc2-c2ccccc2)cc1 [NPB-TQ, N,N′-((6,7-diphenyl-[1,2,5]thiadiazolo[3,4-g]quinoxaline-4,9-diyl)bis(4,1-phenylene))bis(N-phenylnaphthalen-1-amine)]
- two-photon absorption properties (Two-photon absorption): excellent two-photon absorption properties

Structure (SMILES): CCCCCCCCN1c2ccc(-c3ccc(-c4ccc(N(c5ccccc5)c5ccccc5)cc4)c4nsnc34)cc2Sc2cc(-c3ccc(-c4ccc(N(c5ccccc5)c5ccccc5)cc4)c4nsnc34)ccc21 [PTZ-BT-TPA, 4,4′-((10-octyl-10H-phenothiazine-3,7-diyl)bis(benzo[c][1,2,5]thiadiazole-7,4-diyl))bis(N,N-diphenylaniline)]
- two-photon absorption properties (Two-photon absorption): excellent two-photon absorption properties
- fluorescence in cells (HeLa cells): intense red fluorescence was observed in the cellular cytoplasms

Structure (SMILES): c1ccc(C(=C(c2ccccc2)c2ccc(-c3ccc(N(c4ccc(-c5ccc(C(=C(c6ccccc6)c6ccccc6)c6ccccc6)cc5)cc4)c4ccc(-c5sc(-c6ccc(N(c7ccc(-c8ccc(C(=C(c9ccccc9)c9ccccc9)c9ccccc9)cc8)cc7)c7ccc(-c8ccc(C(=C(c9ccccc9)c9ccccc9)c9ccccc9)cc8)cc7)cc6)c6c5N=S=N6)cc4)cc3)cc2)c2ccccc2)cc1 [TPE-TPA-TT, N,N′-(thieno[3,4-b][1,2,5]thiadiazole-5,7-diylbis(4,1-phenylene))bis(4′-(1,2,2-triphenylvinyl)-N-(4′-(1,2,2-triphenylvinyl)-[1,1′-biphenyl]-4-yl)-[1,1′-biphenyl]-4-amine)]
- two-photon absorption properties (Two-photon absorption): excellent two-photon absorption properties

- λab absorption maximum in THF ([1]; THF (Table 2)): 481 nm
- λab absorption maximum ([1]; solvent DO): 478 nm
- λab absorption maximum ([1]; solvent NMP): 484 nm
- λab absorption maximum ([1]; solvent THF): 481 nm
- λab absorption maximum ([1]; solvent Tol): 484 nm
- λem emission maximum soln ([2]; THF solution): 641
- λem emission maximum aggr ([2]; THF/water mixture (1:9 by volume)): 636
- emission intensity at 90% water content relative to pure THF ([2]; THF/water, 10 μM, excitation 480 nm): 170 fold
- emission peak in THF/water mixture ([2]; aggregate state, high water content (90%)): ~636 nm
- λem emission maximum powder ([2]; solid powder): 636
- λem emission maximum ([2]; solvent DO, excitation 480 nm): 640 nm
- λem emission maximum ([2]; solvent Tol, excitation 480 nm): 623 nm
- fluorescence quantum yield ΦF soln ([3]; THF solution, in parentheses): (0.1) %
- quantum efficiency relative to rhodamine B [3, 6]: 38.5%
- τ fluorescence lifetime of solid powders ([3]; solid powder): 1.86 ns
- solid powders fluorescence quantum yield ΦF ([3]; solid powder, in parentheses): (34.1) %
- LUMO ([4]; LUMO = HOMO + Eg): −2.84 eV
- Eg energy band gap ([4]; calculated from the onset of the absorption spectrum): 2.21 eV
- HOMO ([4]; calculated from the onset oxidation potential): −5.05 eV
- maximum two-photon absorption cross section (Two-photon absorption; [6]): 310 GM
Structure (SMILES): c1ccc(C(=C(c2ccccc2)c2ccc(N(c3ccc(-c4ccc(-c5ccc(N(c6ccc(C(=C(c7ccccc7)c7ccccc7)c7ccccc7)cc6)c6ccc(N(c7ccccc7)c7ccccc7)cc6)cc5)c5nsnc45)cc3)c3ccc(N(c4ccccc4)c4ccccc4)cc3)cc2)c2ccccc2)cc1 [TTS]

Structure (SMILES): CCN(CC)c1ccc2c(-c3ccccc3C(=O)O)c3ccc(=[N+](CC)CC)cc-3oc2c1.[Cl-] [rhodamine B]
- ΦF of reference [5]: 41.9%
